Earlier results in patent US5086043A, “Production of Saponins of Lichi” (priority 1990, dated 1992).

Experiments:
capillary permeability = details: mice; established in the prior art
[1] = system: carrageenin-induced swelling; details: rats; established in the prior art

## CC1(C)CC[C@]2(C(=O)O)CC[C@]3(C)C(=CC[C@@H]4[C@@]5(C)CC[C@H](O)C(C)(C)[C@@H]5CC[C@]43C)[C@@H]2C1 [oleanolic acid, Oleanolic acid]
Capillary permeability
  capillary permeability: inhibited capillary permeability in mice
[1]
  carrageenin-induced swelling: inhibited carrageenin-induced swelling in rats
